{
  "source": "patent US6627441B1",
  "about": "“Increasing levels of growth regulator and/or water stress during embryo development” (priority 1998, dated 2003)",
  "key": {"[1]": {"test_system": "Western larch somatic embryos", "assay": "Western larch somatic embryogenesis (Example 10)", "assay_type": "cell-based, Western larch (Larix occidentalis Nutt.)", "method": "In order to test the effect of increased ABA and osmoticum, somatic embryos were first cultured on ½ LM full hormone proliferation medium, then transferred to hormone-free preculture medium with 3% sucrose for one week prior to plating 0.75 mL of a 20% (w/v) suspension culture onto filter paper supports overlaying solidified maturation medium. The somatic embryos were plated on PEG medium of 330 mmol/kg and 16 μM ABA, then transferred to 380 mmol/kg PEG medium, 24 ABA after 1 week, then transferred to 450 mmol/kg PEG medium, 32 μM ABA after the third week. These were then either desiccated at week 5 or were transferred to 540 mmol/kg PEG, 40 μM ABA for up to two more weeks before desiccating."}, "[2]": {"test_system": "Norway spruce somatic embryos", "assay": "Norway spruce culture with raised ABA and PEG (Example 5)", "assay_type": "cell-based", "method": "Norway spruce was cultured using the same protocol as developed for white spruce. Thus, somatic embryos from full hormone suspension culture were transferred to hormone-free liquid culture medium (half-strength Litvay's medium, 3% sucrose) for one week, then transferred (0.75 mL of 20% suspension) to maturation medium in petri dishes.\nThe first medium contained PEG adjusted to 290 mmol/kg and 20 μM ABA. After two weeks, the cultures were transferred on their filter paper supports to fresh medium of the same composition, or to medium containing PEG adjusted to 400 mmol/kg and 30 μM ABA. After a further two weeks (i e., the fourth week of culture), the somatic embryos were transferred either to PEG media at a water potential of 400 mmol/kg and 40 μM ABA, or to PEG medium of 540 mmol/kg and 40 μM ABA. Somatic embryos were also plated on medium containing 20 μM ABA and no PEG."}, "[3]": {"test_system": "Douglas fir somatic embryos", "assay": "Douglas fir somatic embryogenesis (Example 11)", "assay_type": "cell-based", "method": "Douglas fir may be cultured using sucrose at 1-3% (30-90 mM), however, other sugars may be used at the same concentrations. Maintenance cultures usually contain the sugar at about 1%. […] Douglas fir embryogenic tissue was induced from developing seed. Embryos contained in megametophytes were induced and maintained on TX maintenance medium having 1% sucrose. This medium contained 0.2 g/L glutamine and 0.2 g/L casein hydrolysate. Selected embryogenic tissue was subcultured biweekly per petri dish. Medium was solidified with 2.4 g/L PHYTAGEL™. This medium contained 9 μM 2,4-D and 4.5 μM BA. Liquid suspension cultures were maintained in flasks containing 50 mL liquid maintenance medium Liquid cultures were subcultured weekly. For maturation, the embryogenic suspension was first precultured in liquid medium without growth regulators, and subcultured weekly. The water potential of the maintenance cultures and precultures remained below 150 mmol/kg. After one or two weeks of preculture, 1 to 2 g of filtered tissue was resuspended in 10 mL fresh medium and 0.75 mL of the new suspension was pipetted onto the solid maturation medium. Maturation medium contained calcium chloride at 105 mg/L, and ammonium nitrate was included at 400 mg/L. Glutamine was used at 0.8 g/L for the first week then reduced to 0.1 g/L thereafter. Casein hydrolysate was maintained at 0.2 g/L. The sugar was increased to 2-3% and the medium was solidified with Phytagel at 2.8 to 3.4 g/L. ABA was added into the medium after filter sterilization. The maturation medium also contained PEG. The ABA and water potential were raised following the schedule in the following table.\nIn some instances, the PEG was reduced and the water potential made up to the desired level using lactose at 0% in the first week, 1% in week 2, 4% in weeks 3 and 4, 5% in week 5, and 6% in week 6. Although this allowed a firmer gel to set than otherwise would occur with PEG alone, it may not provide any other benefit over full PEG (see, for example, Table 8), particularly if liquid culture medium is used. […] The embryos were desiccated and stored in a freezer as described for spruce, or germinated directly without desiccation. For germination, embryos were placed on half-strength basal medium containing 0.4 g/L calcium nitrate, 0.2 g/L ammonium nitrate, no hormones and 2% sucrose and 0.6% agar. These were grown in the light."}, "[4]": {"test_system": "white spruce somatic embryos", "assay": "Reducing or increasing ABA with increasing water stress and desiccation, plant growth (Example 9)", "assay_type": "cell-based", "conditions": "for Shoot development / Survival / Total plant length: 8 weeks growth", "method": "Experiments were conducted to determine the effects of decreasing ABA levels in combination with increasing water stress on development, desiccation tolerance and germination of white spruce. Embryos from preculture (Example 7, treatment 8) were plated onto the transfer schedule outlined below.\nCotyledonary embryos were visible after the second week of culture, and cotyledons were prominent from the fourth week during which time the somatic embryos were in contact with 40 to 20 μM of ABA. […] For germination, the best embryos which were not showing precocious germination were selected. Somatic embryos were either germinated directly or were desiccated then germinated as described above. Controls were prepared using embryos developed using pretreatment 8, in Example 7, followed by culture on solidified medium treatment 6 of Example 4."}, "[5]": {"conditions": "ABA 30 to 60 μM and water potential 294 to 814 mmol/kg over 6 weeks"}},
  "data": [
    {"compound": "CC1=CC(=O)CC(C)(C)[C@@]1(O)/C=C/C(C)=C\\C(=O)O", "note": "[ABA, abscisic acid]", "values": [
      {"measurement": "production of mature embryos", "setting": "[1]; ABA and a mild water stress of 3% sucrose", "result": "rarely produced mature embryos"},
      {"measurement": "plantlets after desiccation and germination", "setting": "[1]; PEG 330 to 450 or 540 mmol/kg with ABA 16 to 32 or 40 μM, desiccated and germinated", "result": "viable somatic plantlets with root and developing needles"},
      {"measurement": "precocious germination", "setting": "[1]; PEG 330 to 450 or 540 mmol/kg with ABA 16 to 32 or 40 μM, five to seven weeks of culture", "result": "inhibited from germinating precociously"},
      {"measurement": "appearance, precocious germination", "setting": "[2]; 20 μM ABA, no PEG, after six weeks", "result": "green and elongated"},
      {"measurement": "appearance, precocious germination", "setting": "[2]; 290 mmol/kg PEG medium and 20 μM ABA, after six weeks", "result": "green and some had dark green tips to their cotyledons"},
      {"measurement": "appearance, precocious germination", "setting": "[2]; completed the 400 mmol/kg PEG, 40 μM ABA treatment, six weeks", "result": "yellow with a greenish tinge"},
      {"measurement": "appearance, precocious germination", "setting": "[2]; completed the 540 mmol/kg PEG, 40 μM ABA treatment, six weeks", "result": "small and white with no evidence of precocious germination"},
      {"measurement": "germination with shoot and needle development, frequency", "setting": "[3]; [5]", "result": "~100", "unit": "%"},
      {"measurement": "precocious germination", "setting": "[3]; [5]", "result": "Precocious germination was prevented"},
      {"measurement": "survival after transfer to soil in a greenhouse, frequency", "setting": "[3]; somatic plants produced using the methods of this invention", "result": "up to 95%"},
      {"measurement": "appearance of developed embryos, precocious germination", "setting": "[4]; ABA decreasing 40, 20, 10, 0 μM with PEG 290, 400, 540, 540 mmol/kg over 6 weeks", "result": "slight swelling and slight greening"},
      {"measurement": "Shoot development", "setting": "[4]; Increasing ABA, desiccated", "result": 93, "unit": "%"},
      {"measurement": "Survival", "setting": "[4]; Increasing ABA, desiccated", "result": 100, "unit": "%"},
      {"measurement": "Total plant length", "setting": "[4]; Increasing ABA, desiccated", "result": 34.5, "unit": "mm"},
      {"measurement": "Shoot development", "setting": "[4]; Reducing ABA, desiccation", "result": 0, "unit": "%"},
      {"measurement": "Survival", "setting": "[4]; Reducing ABA, desiccation", "result": 80.5, "unit": "%"},
      {"measurement": "Total plant length", "setting": "[4]; Reducing ABA, desiccation", "result": 8.14, "unit": "mm"},
      {"measurement": "Shoot development", "setting": "[4]; Reducing ABA, no desiccation", "result": 0, "unit": "%"},
      {"measurement": "Survival", "setting": "[4]; Reducing ABA, no desiccation", "result": 100, "unit": "%"},
      {"measurement": "Total plant length", "setting": "[4]; Reducing ABA, no desiccation", "result": 25.8, "unit": "mm"},
      {"measurement": "new needle development", "setting": "[4]; Reducing ABA, non-desiccated embryos, after 12 weeks of growth", "result": "none had shown new needle development"}
    ]}
  ]
}
